# Like-named read-outs stand apart in the source and are kept apart here. Marks after values point to notes of the source that are not given here.
# How the values were obtained:
# [1] = tested on: bovine vascular smooth muscle cells (bVSMCs); test: Alizarin Red S staining, bVSMC GAD calcification model (Example 4); type: cell-based; conditions: GAD-treated bVSMCs, 10 μM, 7 d, versus no inhibitor
# Protocol: (§1) For the bVSMCs a GAD medium (10 mM β-glycerophosphate/0.1 mM L-ascorbic acid-2-phosphate/10 nM dexamethasone) model was used to induce mineralization in bVSMCs. Accordingly, cells were seeded in tissue culture plates using M199/20% FCS culture medium and cultured overnight. The next day, cells were treated either with medium only (M199/5% FBS)+/−inhibitors, or with the GAD-medium (10 mM β-glycerophosphate/0.1 mM L-ascorbic acid-2-phosphate/[…] dexamethasone)+/−inhibitors.
# Medium+/−inhibitors was exchanged every 2-3 days. Bovine VSMCs were incubated for 7 d prior to assessment.
# The Alizarin Red S staining is a visual/histological stain for tissue calcium deposits. Cells are briefly fixed in 4% paraformaldehyde/PIPES buffer pH 7.2 and subsequently stained for 5 min with Alizarin Red S (2% Alizarin Red S/DIW pH 4.2). Excess stain is removed by washing in DIW. Calcium mineral deposits are stained a bright orange red.
# [2] = tested on: bovine vascular smooth muscle cells (bVSMCs); test: MTT cell viability assay, bVSMCs with or without GAD medium, 7 or 9 days (Example 5); type: cell-based
# Protocol: As above, cells were treated either with medium only (“no-additions”; NA)+/−inhibitors, or with the GAD-medium+/−inhibitors. […] Additionally, an MTT assay was performed as a measure of cell viability/proliferation. Bovine VSMCs were seeded in 96 well plates and cultured in M199/20% FCS for 1 day. Then, the cells were incubated with inhibitor concentrations of 10 μM, 1 μM and 0.1 μM (in M199 medium+5% FBS). […] Then, the MTT assay was performed.
# [3] = tested on: bovine vascular smooth muscle cells (bVSMCs); type: cell-based; conditions: 7 days; for Cell viability of bVSMCs after seven days (MTT signal, relative to control): mean of three experiments
# Protocol: The toxicity of the identified compounds to bovine VSMCs was measured using the MTT assay, which measures the activity of dehydrogenase enzymes of live cells. This assay can pick up both cell death and proliferation.
# Bovine VSMCs were seeded in 96 well plates and cultured in M199/20% FCS for 1 day. Then, the cells were incubated with inhibitor concentrations from 0.5 to 100 μM (in M199 medium+5% FBS). The cells were incubated with the inhibitors for 7 days; every 2-3 days the medium −/+inhibitors was exchanged. Then, the MTT assay was performed. The stock vehicle DMSO was tested at corresponding concentrations to the inhibitors at 0.1% DMSO or less.
# [4] = tested on: bovine vascular smooth muscle cells (bVSMCs); test: o-Cresolphthalein Ca2+ assay, bVSMC GAD calcification model (Examples 4 and 5); type: cell-based
# Protocol: as §1
# Medium+/−inhibitors was exchanged every 2-3 days. […]
# The o-Cresolphthalein assay is a spectrophotometric method for measuring Ca^2+-concentrations in cell/tissue lysates. Following the calcification experiments, cells are briefly washed to remove medium and 100 […]1 of 0.1 N HCl is added to each well to dissolve any mineral deposits. Then, the Ca^2+-concentration of the samples is measured spectrophotometrically (at 570 nm) in the o-cresolphthalein assay with the help of a CaCl2 standard curve in a concentration range of ˜0.02-270 µg Ca^2+/ml.
# The commercial BioRad DC protein assay is based on the Lowry method, aka reaction of proteins with a copper-tartrate complex and subsequent reaction with Folin's reagent. Following the calcification experiment, cells are briefly washed to remove medium and 100 µl of solubilisation solution (0.1 M NaOH/1% SDS/DIW) is added to each well to lyse the cells. The protein concentrations of the lysates are subsequently determined in the BioRad DC assay as per supplier's instructions using BSA (bovine serum albumin) as standard.
# The in vitro model is the same as the model used in example 4; bovine vascular smooth muscle cells (bVSMCs) cultured so that they produce extracellular matrix, with the addition of the GAD medium (10 mM β-glycerophosphate/0.1 mM L-ascorbic acid-2-phosphate/10 nM dexamethasone).
# As above, cells were treated either with medium only (“no-additions”; NA)+/−inhibitors, or with the GAD-medium+/−inhibitors. The inhibitors used were PJ34 and minocyclin (MC) at 10 μM, 1 μM and 0.1 μM.
# The methodology was the same as that described in example 4.
# [5] = tested on: human vascular smooth muscle cells (hVSMCs); test: o-Cresolphthalein Ca2+ assay, hVSMC Ca/P calcification model (Examples 7-9); type: cell-based; conditions: hVSMCs, 6 days; PJ34 10 μM; minocycline and cilostazol 0.5, 1 and 2 μM
# Protocol: (§2) Primary hVSMCs were cultured in M199 media containing FBS (M199/5% FBS). They were plated at a known cell density, allowed to grow for 24 hours and then treated with control (DMSO only) or calcification media (DMSO containing 2.7 mM Calcium+2.5 mM phosphate)+/−inhibitors. After 6 days, calcification was assessed using the o-Cresolphthalein assay for quantification of Ca^2+ deposition and a BioRad protein assay for protein content.
# Medium+/−inhibitors was exchanged every 2-3 days.
# as §2, with “8” for “6”, “using” for “using the”
# All of the compounds tested were used at a concentration of 3 μM. Medium+/−inhibitors was exchanged every 2-3 days.
# as §2, with “phosphate)+/−compounds.” for “phosphate)+/−inhibitors.”, “8” for “6”, “using” for “using the”
# These concentrations were chosen to mimic the systemic concentrations of these drugs following patient dosing according to the dose schedule in the prescribing information for each drug. Medium+/−inhibitors was exchanged every 2-3 days.
# [6] = tested on: human monocyte-macrophages (HMMs); test: MTT toxicity assay, HMMs, seven days (Example 3); type: cell-based; conditions: 7 days; for Cell viability by MTT, percent of control: mean of three experiments
# Protocol: A similar set of toxicity experiments was performed with human monocyte-macrophages (HMMs).
# [7] = tested on: PARP produced by a mammalian cell; conditions: have been shown; cited from earlier work
smiles,measurement,setting,value
"CN(C)CC(=O)Nc1ccc2[nH]c(=O)c3ccccc3c2c1.Cl [PJ34, N-(6-Oxo-5,6-dihydrophenanthridin-2-yl)-(N,N-dimethylamino)acetamide hydrochloride]","Degree of mineralization judged by eye (Alizarin Red S, FIG. 6)",[1],slightly worse
same,Cell viability (%) mean,"[2]; nine days, no GAD, 0.1 μM",99.88%
same,Cell viability (%) mean,"[2]; nine days, no GAD, 1 μM",97.1%
same,Cell viability (%) mean,"[2]; nine days, no GAD, 10 μM",98.3%
same,Cell viability (%) mean,"[2]; nine days, with GAD, 0.1 μM",69.43%
same,Cell viability (%) mean,"[2]; nine days, with GAD, 1 μM",59.06%
same,Cell viability (%) mean,"[2]; nine days, with GAD, 10 μM",69.43%
same,Cell viability (%) mean,"[2]; seven days, no GAD, 0.1 μM",93.81%
same,Cell viability (%) mean,"[2]; seven days, no GAD, 1 μM",97.16%
same,Cell viability (%) mean,"[2]; seven days, no GAD, 10 μM",99.25%
same,Cell viability (%) mean,"[2]; seven days, with GAD, 0.1 μM",96.46%
same,Cell viability (%) mean,"[2]; seven days, with GAD, 1 μM",94.61%
same,Cell viability (%) mean,"[2]; seven days, with GAD, 10 μM",90.03%
same,"Cell viability of bVSMCs after seven days (MTT signal, relative to control)",[3]; 0.5 uM,102.59
same,"Cell viability of bVSMCs after seven days (MTT signal, relative to control)",[3]; 1 uM,98.89
same,"Cell viability of bVSMCs after seven days (MTT signal, relative to control)",[3]; 2 uM,92.33
same,"Cell viability of bVSMCs after seven days (MTT signal, relative to control)",[3]; 5 uM,95.74
same,"Cell viability of bVSMCs after seven days (MTT signal, relative to control)",[3]; 10 uM,97.07
same,"Cell viability of bVSMCs after seven days (MTT signal, relative to control)",[3]; 20 uM,99.71
same,"Cell viability of bVSMCs after seven days (MTT signal, relative to control)",[3]; 50 uM,80.83*
same,"Cell viability of bVSMCs after seven days (MTT signal, relative to control)",[3]; 100 uM,53.72*
same,"Toxicity to bVSMCs (MTT assay, in words)",[3]; at 50 and 100 μM,toxic
same,Cell death in bVSMCs (FIG. 4A and example 2),[3]; bVSMCs,induce some cell death
same,"Calcium levels (mass of calcium, FIG. 7B) compared to no inhibitors","[4]; GAD-treated bVSMCs, 10 μM, 7 d",elevate calcium levels
same,"Normalised calcium levels (mass of calcium per mass of protein, FIG. 9B)","[4]; GAD-treated bVSMCs, 10 μM, 7 d",elevate calcium levels
same,"Effect on calcification (in words, discussion of Example 5)",[4]; bVSMC GAD model,encouraging calcification
same,"Ca^2+ concentration found in bVSMCs, mean","[4]; nine days, no GAD, 0.1 μM",1.438 μg calcium/ml
same,"Ca^2+ concentration found in bVSMCs, mean","[4]; nine days, no GAD, 1 μM",1.179 μg calcium/ml
same,"Ca^2+ concentration found in bVSMCs, mean","[4]; nine days, no GAD, 10 μM",1.061 μg calcium/ml
same,"Ca^2+ concentration found in bVSMCs, mean","[4]; nine days, with GAD, 0.1 μM",22.69 μg calcium/ml
same,"Ca^2+ concentration found in bVSMCs, mean","[4]; nine days, with GAD, 1 μM",132.87 μg calcium/ml
same,"Ca^2+ concentration found in bVSMCs, mean","[4]; nine days, with GAD, 10 μM",66.68 μg calcium/ml
same,"Ca^2+ concentration found in bVSMCs, mean","[4]; seven days, no GAD, 0.1 μM",0.612 μg calcium/ml
same,"Ca^2+ concentration found in bVSMCs, mean","[4]; seven days, no GAD, 1 μM",0.565 μg calcium/ml
same,"Ca^2+ concentration found in bVSMCs, mean","[4]; seven days, no GAD, 10 μM",0.561 μg calcium/ml
same,"Ca^2+ concentration found in bVSMCs, mean","[4]; seven days, with GAD, 0.1 μM",1.84 μg calcium/ml
same,"Ca^2+ concentration found in bVSMCs, mean","[4]; seven days, with GAD, 1 μM",4.06 μg calcium/ml
same,"Ca^2+ concentration found in bVSMCs, mean","[4]; seven days, with GAD, 10 μM",4.93 μg calcium/ml
same,"Calcium levels (mass of calcium, FIG. 17) versus DMSO Ca+P positive control",[5],reduce the calcium levels
same,"Normalised calcium levels (mass of calcium per mass of protein, FIG. 19)",[5],lower calcium levels significantly
same,"Cell viability by MTT, percent of control",[6]; 0.5 uM,106.63
same,"Cell viability by MTT, percent of control",[6]; 1 uM,88.38
same,"Cell viability by MTT, percent of control",[6]; 2 uM,84.08
same,"Cell viability by MTT, percent of control",[6]; 5 uM,95.65
same,"Cell viability by MTT, percent of control",[6]; 10 uM,77.14
same,"Cell viability by MTT, percent of control",[6]; 20 uM,74.86
same,"Cell viability by MTT, percent of control",[6]; 50 uM,60.33*
same,"Cell viability by MTT, percent of control",[6]; 100 uM,37.30*
same,Toxicity to HMMs (in words),[6]; at a concentration of 100 μM,most toxic
same,Inhibition of PARP produced by a mammalian cell,[7],inhibit PARP

# — US10159685B2, “Vascular calcification” (Cambridge Enterprise Limited, priority 2016, dated 2018)
